In patent US20240174637A1, “DEGRADERS OF GRK2 AND USES THEREOF” (Sonata Therapeutics, Inc., priority 2021, published 2024) one finds IC50, inhibition and DC50 data, which are given here for twelve compounds.

What all share (assay type): cell-based
In one assay the test system is PAXF1657 KO Clone #4. Description: 7-day cellular proliferation assay (CellTiter-Glo), PAXF1657 KO Clone #4. Conditions: proliferation, read-out: GeoMean IC50 (uM) PAXF1657 KO Clone #4. The method, then:
(§1) In order to identify compounds specific for GRK2, we generated two isogenic cell line pairs of the pancreatic cancer cell line PAXF1657, a pair of cells stably overexpressing GRK2 cDNA or the control empty vector and a cell line pair of PAXF1657 GRK2 knockout clonal cells versus non-targeting control clonal cells.
(§2) Proliferation Assay: Cellular anti-proliferative activity of compounds was assessed by using the pancreatic cancer cell line, PAXF1657, stably overexpressing GRK2 cDNA or the control empty vector, as well as the parental urinary bladder cancer cell line, 5637. In addition, we also took advantage of GRK2 knockout cell lines that were generated via CRISPR. Cell lines were seeded into tissue culture treated, white-walled, 96-well plates at a density of 500 cells/well in RPMI1640 media supplemented with 10% H.I. FBS and penicillin/streptomycin. Plates were incubated overnight at 37° C., 5% CO2 to allow cells to adhere to the wells. GRK2 inhibitors were added to the cells using a 10-point dilution series with a final concentration ranging from 30 μM-0.0002 μM in 0.3% DMSO. At the time of compound addition, a set of plates, that were not treated with compounds, were collected and cell viability was measured using CellTiter-Glo (Promega). CellTiter-Glo reagent was added to the designed plates and luminescence was measuring using a Biotek Synergy plate reader. The compound treated cells were incubated for 3 days at 37° C., 5% CO2. The media was then aspirated from each well and replaced with fresh media containing GRK2 inhibitors. The compound treated cells were then incubated for an additional 4 days at 37° C., 5% CO2. Cell viability was assessed and at end of the 7-day compound treatment by CellTiterGlo.
Background: Cellular ATP, detected with luciferase, serves as a proxy for viable cell number.

The target of a further assay is T1, GRK2 (Homo sapiens, UniProt P25098).
T1 sequence (P25098 1-689): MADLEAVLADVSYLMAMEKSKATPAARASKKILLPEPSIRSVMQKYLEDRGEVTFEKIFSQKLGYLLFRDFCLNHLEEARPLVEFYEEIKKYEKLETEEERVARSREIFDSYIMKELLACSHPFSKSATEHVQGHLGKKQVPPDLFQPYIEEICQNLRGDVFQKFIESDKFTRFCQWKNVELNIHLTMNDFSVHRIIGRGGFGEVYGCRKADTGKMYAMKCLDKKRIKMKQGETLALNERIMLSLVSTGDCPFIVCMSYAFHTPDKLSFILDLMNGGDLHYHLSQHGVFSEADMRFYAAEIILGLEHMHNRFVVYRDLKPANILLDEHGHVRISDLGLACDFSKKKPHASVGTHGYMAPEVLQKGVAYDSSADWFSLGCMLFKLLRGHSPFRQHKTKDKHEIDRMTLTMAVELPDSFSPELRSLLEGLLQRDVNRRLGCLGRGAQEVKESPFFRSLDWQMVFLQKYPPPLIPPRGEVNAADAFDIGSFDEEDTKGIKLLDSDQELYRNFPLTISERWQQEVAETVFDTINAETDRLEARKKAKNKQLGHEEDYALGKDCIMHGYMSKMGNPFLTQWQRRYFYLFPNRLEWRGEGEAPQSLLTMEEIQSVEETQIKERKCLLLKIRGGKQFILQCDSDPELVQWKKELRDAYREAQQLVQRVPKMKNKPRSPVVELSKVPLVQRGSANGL
Kind of assay: GRK2 Degradation Assay and Western Blot in PAXF1657 cells. Also on record: endogenous in cells; host or cells: PAXF1657. Conditions: for inhibition at 0.3 µM: Conc 0.3 uM; for inhibition at 0.3 µM / inhibition at 1 µM / inhibition at 3 µM: read-out: Degradation Assay - 3 point: Degradation (%); for inhibition at 1 µM: Conc 1 uM; for inhibition at 3 µM: Conc 3 uM. Here is the method: General Protocol: Degradation Assay and Western Blot. PAXF1657 cells were plated in 6-well, 24-well plates or 60 mm tissue culture treated dishes and incubated at 37° C. until 70% confluency. The media was aspirated, and the cells were treated with fresh media containing the compounds in the concentration range of 0 μM to 10 μM for a period of 6 to 24 hours. At the desired time points the cells were washed twice with cold PBS and lysed with lysis buffer (ice cold PBS+1% NP40 with 1/100 protease/phosphatase inhibitors) on ice for 8 mins followed by sonication at 70% intensity pulses for 10 seconds. The cells were centrifuged at 20000 g for 8 min at 4° C. The supernatants were collected and stored at −80° C.
Samples were mixed with NuPAGE LDS sample buffer and NuPAGE sample reducing buffer (3×), vortexed and heated at 95° C. for 10 min, and then analyzed by SDS-PAGE (NuPAGE 4-12%) followed by transfer to nitrocellulose membrane. […] The membranes were washed three times with TBST and incubated with GRK2 or R-actin antibodies in 5% milk in TBST at 4° C. overnight. The membranes were washed three times with TBST and incubated with anti-mouse IgG-HRP or anti-rabbit IgG-HRP at room temperature for 2 hours in 5% milk in TBST. The membranes were washed three times with TBST and developed with ECL Dura, ECL femto or ECL atto substrates.

The subject of a further assay is PAXF1657 EV. Description: 7-day cellular proliferation assay (CellTiter-Glo), PAXF1657 EV. Conditions: proliferation, read-out: GeoMean IC50 (UM) PAXF1657 EV. Here is the method: as §1, §2

As usually defined, the IC50 is the concentration at which inhibition is half-maximal. Turning to `Cn1c(CNc2cccc(C(=O)N[C@H]3CCOc4ccc(OCCCCCCOCCOCCOCCCCCC(=O)Nc5cccc6c5CN(C5CCC(=O)NC5=O)C6=O)cc43)c2)nnc1-c1ccncn1` (stereo partly drawn) [Compound D156, N-((4S)-6-(6-(2-(2-(6-(2-(2,6-dioxopiperidin-3-yl)-1-oxoisoindolin-4-ylamino)-6-oxohexyloxy)ethoxy)ethoxy)hexyloxy)chroman-4-yl)-3-((4-methyl-5-(pyrimidin-4-yl)-4H-1,2,4-triazol-3-yl)methylamino)benzamide], the IC50 in the assay on PAXF1657 KO Clone #4 is greater than 30 µM. At GRK2, the inhibition at 0.3 µM was -8.15%, the inhibition at 1 µM was 2.96% and the inhibition at 3 µM is 11.5%. In addition, the half-maximal inhibitory concentration (IC50) with PAXF1657 EV stood at 2.15 µM.

Regarding `C[C@@H](NC(=O)c1cccc(NCc2nnc(-c3ccncn3)n2C)c1)c1cccc(OCCCCCn2cc(CCCC(=O)Nc3cccc4c3CN(C3CCC(=O)NC3=O)C4=O)nn2)c1` (stereo partly shown) [Compound D157], in the assay on PAXF1657 KO Clone #4, the half-inhibitory concentration (IC50) was greater than 30 µM. For the same compound, at GRK2, the inhibition at 0.3 µM is 13.5%, the inhibition at 1 µM stood at 11.1% and the inhibition at 3 µM was found to be 42.3%. Moreover, in the assay with PAXF1657 EV, the IC50 turned out to be 7.39 µM.

Consider `C[C@@H](NC(=O)c1cccc(NCc2nnc(-c3ccncn3)n2C)c1)c1cccc(OCCCCCCCn2cc(CCCC(=O)Nc3cccc4c3CN(C3CCC(=O)NC3=O)C4=O)nn2)c1` (stereo partly drawn) [Compound D158, N-((1R)-1-(3-(7-(4-(4-(2-(2,6-dioxopiperidin-3-yl)-1-oxoisoindolin-4-ylamino)-4-oxobutyl)-1H-1,2,3-triazol-1-yl)heptyloxy)phenyl)ethyl)-3-((4-methyl-5-(pyrimidin-4-yl)-4H-1,2,4-triazol-3-yl)methylamino)benzamide], for which, in the assay with PAXF1657 KO Clone #4, the IC50 was greater than 30 µM. Moreover, at GRK2, the inhibition at 0.3 µM came to 42.9%, the inhibition at 1 µM worked out at 65.8% and the inhibition at 3 µM was determined as 81.9%. Moreover, the half-inhibitory concentration (IC50) with PAXF1657 EV stood at 1.71 µM.

Take `C[C@@H](NC(=O)c1cccc(NCc2nnc(-c3ccncn3)n2C)c1)c1cccc(OCCCCCCn2cc(CCC(=O)Nc3cccc4c3CN(C3CCC(=O)NC3=O)C4=O)nn2)c1` (stereo partly shown) [Compound D159]: the IC50 in the assay with PAXF1657 KO Clone #4 was greater than 30 µM. Also, on GRK2, the inhibition at 0.3 µM is 10%, the inhibition at 1 µM came out at 46.3% and the inhibition at 3 µM was 64.5%. In the assay on PAXF1657 EV, the IC50 is 18.2 µM.

As to `Cc1ncsc1-c1ccc(CNC(=O)[C@@H]2C[C@@H](O)CN2C(=O)[C@@H](NC(=O)COCCCOCCCCCOc2ccc3c(c2)[C@H](NC(=O)c2cccc(NCc4nnc(-c5ccncn5)n4C)c2)CCO3)C(C)(C)C)cc1` [Compound D161], the IC50 in the assay on PAXF1657 KO Clone #4 stood at 7.51 µM. Further, on GRK2, the inhibition at 0.3 µM was 15%, the inhibition at 1 µM worked out at 23% and the inhibition at 3 µM was 30%. In the assay on PAXF1657 EV, the 50% inhibitory concentration (IC50) was 1.56 µM.

As to `C[C@@H](NC(=O)c1cccc(NCc2nnc(-c3ccncn3)n2C)c1)c1cccc(OCCCCCn2cc(CCCCC(=O)Nc3cccc4c3CN(C3CCC(=O)NC3=O)C4=O)nn2)c1` (stereo partly shown) [Compound D164], in the assay with PAXF1657 KO Clone #4, the 50% inhibitory concentration (IC50) is greater than 30 µM. In addition, on GRK2, the inhibition at 0.3 µM came to 17.1%, the inhibition at 1 µM worked out at 14.1% and the inhibition at 3 µM was found to be 42.6%. Also, the half-inhibitory concentration (IC50) with PAXF1657 EV is 5.09 µM.

With `C[C@@H](NC(=O)c1cccc(NCc2nnc(-c3ccncn3)n2C)c1)c1cccc(OCCCCCCn2cc(CCCC(=O)Nc3cccc4c3CN(C3CCC(=O)NC3=O)C4=O)nn2)c1` (stereo partly shown) [Compound D165], the IC50 in the assay with PAXF1657 KO Clone #4 was greater than 30 µM. Moreover, at GRK2, the inhibition at 0.3 µM is -1.61%, the inhibition at 1 µM was found to be 35.5% and the inhibition at 3 µM worked out at 70.1%. Besides, the IC50 in the assay on PAXF1657 EV amounted to 2.6 µM.

On to `C[C@@H](NC(=O)c1cccc(NCc2nnc(-c3ccncn3)n2C)c1)c1cccc(OCCCCCCn2cc(CCCCC(=O)Nc3cccc4c3CN(C3CCC(=O)NC3=O)C4=O)nn2)c1` (stereo partly shown) [Compound D166], for which the IC50 in the assay on PAXF1657 KO Clone #4 is greater than 30 µM. Further, at GRK2, the inhibition at 0.3 µM came to 12.1%, the inhibition at 1 µM worked out at 32.4% and the inhibition at 3 µM turned out to be 68.1%. Moreover, in the assay on PAXF1657 EV, the IC50 was determined as 1.91 µM.

As to `Cn1c(CNc2cccc(C(=O)NCc3ccc(OCCCCCOCCCOCC(=O)Nc4cccc5c4CN(C4CCC(=O)NC4=O)C5=O)cc3)c2)nnc1-c1ccncn1` (stereo not shown) [Compound D167, N-(4-(5-(3-(2-(2-(2,6-dioxopiperidin-3-yl)-1-oxoisoindolin-4-ylamino)-2-oxoethoxy)propoxy)pentyloxy)benzyl)-3-((4-methyl-5-(pyrimidin-4-yl)-4H-1,2,4-triazol-3-yl)methylamino)benzamide], the IC50 in the assay on PAXF1657 KO Clone #4 was greater than 30 µM. On GRK2, the inhibition at 0.3 µM is 33.3%, the inhibition at 1 µM was found to be 57.4% and the inhibition at 3 µM turned out to be 55.2%. The half-maximal inhibitory concentration (IC50) in the assay on PAXF1657 EV stood at 2.44 µM.

As for `Cc1ncsc1-c1ccc(CNC(=O)[C@@H]2C[C@@H](O)CN2C(=O)[C@@H](NC(=O)COCCCOCCCCCOc2ccc(CNC(=O)c3cccc(NCc4nnc(-c5ccncn5)n4C)c3)cc2)C(C)(C)C)cc1` [Compound D168], the concentration for half-maximal inhibition (IC50) with PAXF1657 KO Clone #4 was determined as 6.03 µM. Besides, at GRK2, the inhibition at 0.3 µM turned out to be 0.276%, the inhibition at 1 µM is -12% and the inhibition at 3 µM is -22%. In the assay on PAXF1657 EV, the IC50 is greater than 1.88 µM.

As for `Cc1ncsc1-c1ccc(CNC(=O)[C@@H]2C[C@@H](O)CN2C(=O)[C@@H](NC(=O)COCCCOCCCCCOc2cccc([C@@H](C)NC(=O)c3cccc(NCc4nnc(-c5ccncn5)n4C)c3)c2)C(C)(C)C)cc1` [Compound D182, (2S,4R)-1-((S)-3,3-dimethyl-2-(2-(3-((5-(3-((R)-1-(3-(((4-methyl-5-(pyrimidin-4-yl)-4H-1,2,4-triazol-3-yl)methyl)amino)benzamido)ethyl)phenoxy)pentyl)oxy)propoxy)acetamido)butanoyl)-4-hydroxy-N-(4-(4-methylthiazol-5-yl)benzyl)pyrrolidine-2-carboxamide], the IC50 with PAXF1657 KO Clone #4 came to 10 µM. For the same compound, at GRK2, the inhibition at 0.3 µM worked out at 29.1%, the inhibition at 1 µM is 29.5% and the inhibition at 3 µM is 21.3%. Moreover, the DC50 on GRK2 (PAXF1657, 24 h, read-out: Degradation Assay - Full Dose Response: IC50 (uM) [cell line: PAXF1657, time point: 24 h]) came to 0.38 µM. In the assay with PAXF1657 EV, the IC50 is 0.12 µM.

On to `Cc1ncsc1-c1ccc(CNC(=O)[C@@H]2C[C@@H](O)CN2C(=O)C(NC(=O)CCCCCOCCOCCOCCCCCCOc2ccc3c(c2)[C@H](NC(=O)c2cccc(NCc4nnc(-c5ccncn5)n4C)c2)CCO3)C(C)(C)C)cc1` (stereo partly drawn) [Compound D186, (2S,4R)-1-((R)-2-tert-butyl-22-((R)-4-(3-((4-methyl-5-(pyrimidin-4-yl)-4H-1,2,4-triazol-3-yl)methylamino)benzamido)chroman-6-yloxy)-4-oxo-10,13,16-trioxa-3-azadocosane)-4-hydroxy-N-(4-(4-methylthiazol-5-yl)benzyl)pyrrolidine-2-carboxamide], for which the concentration for half-maximal inhibition (IC50) in the assay with PAXF1657 KO Clone #4 worked out at 5.09 µM. Also, at GRK2, the inhibition at 0.3 µM was found to be 20%, the inhibition at 1 µM stood at 36.3% and the inhibition at 3 µM is -32.6%. Besides, the half-inhibitory concentration (IC50) in the assay with PAXF1657 EV was found to be 0.56 µM.
